Assay results reported in article PMC6222316, “UPLC-MS/MS Method for the Determination of 14 Compounds in Rat Plasma and Its Application in a Pharmacokinetic Study of Orally Administered Xiaoyao Powder” (Molecules : A Journal of Synthetic Chemistry and Natural …, 2018).
Read-outs that look alike come from different tables or passages of the source.

Assay: Pharmacokinetic study of 14 compounds in rat plasma after oral administration of XYP (UPLC-MS/MS)
Assay type: in vivo, Sprague–Dawley rats
Parameters: Kel (elimination rate constant): unit not given here
Settings: oral XYP 4 g/kg; for AUC(0-inf) / AUC(0-t) / Cmax / half-life / MRT last / MRT inf / Tmax: female, Sprague-Dawley; for MRT last: n = 6, read-out: MRT0–t; for MRT inf: n = 6, read-out: MRT0–∞; for Tmax: rat, plasma, po, 4 g/kg
Method: The validated UPLC-MS/MS method was successfully applied to the pharmacokinetic study of 14 compounds in rat plasma after the oral administration of XYP at a dose of 4 g/kg (8-fold the clinical dosage).
Quantitative analysis was conducted on a Waters® Micromass® Quattro Premier™ XE triple-quadrupole tandem mass spectrometer (Waters Corp., Milford, MA, USA). Chromatographic separation was performed on an ACQUITY UPLCTM BEH C18 column (1.7 µm, 50 × 2.1 mm; Waters Corp.) equipped with an ACQUITY UPLC C18 guard column. The column temperature was maintained at 35 °C. The mobile phase consisted of 0.1% formic acid in water (A) and acetonitrile (B). The total flow rate was 0.3 mL/min. Chromatographic separation was achieved using a 14.5-min gradient elution. The gradient conditions of the mobile phase were as follows: 0–4 min, 4–22% (B); 4–5 min, 22–27% (B); 5–10 min, 27–50% (B); and 10–14.5 min, 50–96% (B). The samples were kept at 4 °C in the auto-sampler, and the injection volume was 5 µL.
Methanol (1.5 mL), 10 μg/mL IS and 300 μL plasma was mixed, then vortexed for 1 min. After centrifuging at 14,000× g for 10 min, the supernatant was put into another centrifuge tube. The residue was vortexed with another 1.5 mL methanol and centrifuged again, and the two supernatants were combined and evaporated to dryness under a flow of nitrogen gas at 40 °C. The residue was then dissolved in 100 μL methanol and vortexed for 1 min. Finally, the vortexing and centrifugation process was again repeated, and 5 μL of the supernatant was injected into the UPLC-MS/MS system for analysis.
Twenty healthy female Sprague–Dawley rats (300 ± 20 g) were purchased from the Animal Safety Evaluation Center of Heilongjiang University of Chinese Medicine (Heilongjiang, China). All protocols for animal experiments were approved in accordance with the Regulations of Experimental Animal Administration issued by the State Commission of Science and Technology of the People’s Republic of China. The rats were kept under a light/dark cycle of 12 h, within the temperature range of 24 °C ± 2 °C to room temperature, and at a humidity of 50 ± 10%. All rats were fasted for 12 h before experimentation but were allowed to drink freely. XYP extract was dissolved in water, and the rats were administrated orally with 4 g/kg XYP. Blood samples were collected from the suborbital venous lexus at 0, 0.083, 0.17, 0.33, 0.50, 0.75, 1.0, 2.0, 4.0, 8.0, 12 and 24 h into 1.5-mL heparinized polythene tubes […]. The blood samples were immediately centrifuged at 4500 rpm for 10 min, and the plasma was stored at −80 °C until analysis. The pharmacokinetic parameters (Cmax, tmax, t1/2, Kel, AUC0–t, AUC0–∞, MRT0–t, MRT0–∞) were calculated with the software Winnolin 3.2.

[1] = mean ± SD, n = 6, read-out: tmax
[2] = read-out: tmax (time to maximum plasma concentration)

AUC(0-inf) (mean ± SD, n = 6) | AUC(0-t) (mean ± SD, n = 6) | Cmax (mean ± SD, n = 6) | half-life (mean ± SD, n = 6) | MRT last (mean ± SD) | MRT inf (mean ± SD) | Tmax [1] | Kel (elimination rate constant) (mean ± SD, n = 6) | Tmax [2] | time of first detection in plasma | shape of plasma concentration-time curve | time of second maximal plasma concentration | t1/2 (mean ± SD, n = 6) | SMILES
135 ± 65.6 ng·h/mL | 128 ± 64.9 ng·h/mL | 58.3 ± 27.5 ng/mL | 7.11 ± 4.57 h | 4.18 ± 1.58 h | 6.34 ± 4.5 h | 0.39 ± 0.09 h | 0.13 ± 0.06 | – | – | – | – | – | CC12CC(O)C3CC1(OC1OC(CO)C(O)C(O)C1O)C3(COC(=O)c1ccccc1)C(=O)O2 (centres unmarked) [Albiflorin, albiflorin]
1610 ± 853 ng·h/mL | 1580 ± 851 ng·h/mL | 632 ± 244 ng/mL | 5.3 ± 1.85 h | 3.97 ± 0.8 h | 4.66 ± 0.52 h | 0.21 ± 0.1 h | 0.15 ± 0.05 | 0.2 h | 5 min | – | – | – | COc1cc(/C=C/C(=O)O)ccc1O [Ferulic acid, ferulic acid]
185 ± 89.9 ng·h/mL | 157 ± 76.7 ng·h/mL | 33.6 ± 9.37 ng/mL | 5.82 ± 3.25 h | 5.98 ± 1.5 h | 7.81 ± 3.39 h | 0.39 ± 0.09 h | 0.17 ± 0.12 | – | – | double peak | about 4 h | – | O=C(/C=C/c1ccc(O)cc1)c1ccc(O)cc1O [Isoliquiritigenin, isoliquiritigenin]
328 ± 198 ng·h/mL | 286 ± 144 ng·h/mL | 33.2 ± 12 ng/mL | 6.43 ± 2.42 h | 8.85 ± 1.09 h | 11.5 ± 3.02 h | 0.19 ± 0.07 h | 0.12 ± 0.06 | – | – | double peak | about 4 h | – | O=C1C[C@@H](c2ccc(O)cc2)Oc2cc(O)ccc21 [Liquiritigenin, liquiritigenin]
181 ± 90.9 ng·h/mL | 163 ± 91.5 ng·h/mL | 57.9 ± 36.6 ng/mL | – | 5.7 ± 1.25 h | 10.2 ± 6.79 h | 0.39 ± 0.09 h | 0.09 ± 0.04 | – | – | double peak | – | 9.32 ± 5.49 h | O=C1C[C@@H](c2ccc(O[C@@H]3O[C@H](CO)[C@@H](O)[C@H](O)[C@H]3O)cc2)Oc2cc(O)ccc21 [Liquiritin, liquiritin]
782 ± 415 ng·h/mL | 766 ± 410 ng·h/mL | 491 ± 168 ng/mL | 4.09 ± 1.24 h | 6.4 ± 0.85 h | 7.03 ± 1.02 h | 0.1 ± 0.03 h | 0.19 ± 0.07 | 0.1 h | – | – | ~8 h | – | O=c1c(O)c(-c2ccc(O)c(O)c2)oc2cc(O)cc(O)c12 [Quercetin, quercetin]

Further lines, the compound ahead of its results:

SMILES | AUC(0-inf) (mean ± SD, n = 6) | AUC(0-t) (mean ± SD, n = 6) | Cmax (mean ± SD, n = 6) | half-life (mean ± SD, n = 6) | MRT last (mean ± SD) | MRT inf (mean ± SD) | Tmax [1] | Kel (elimination rate constant) (mean ± SD, n = 6) | Tmax [2] | time of first detection in plasma | shape of plasma concentration-time curve | time of second maximal plasma concentration | t1/2 (mean ± SD, n = 6)
C=C1CCC[C@]2(C)C[C@@H]3OC(=O)C(C)=C3C[C@@H]12 [Atractylenolide II, atractylenolide II] | 70.2 ± 25.6 ng·h/mL | 69.5 ± 25.7 ng·h/mL | 22.5 ± 8.04 ng/mL | 3.54 ± 1.21 h | 4.15 ± 0.82 h | 4.43 ± 0.98 h | 0.64 ± 0.29 h | 0.21 ± 0.07 | – | – | – | – | –
C=C1CCC[C@]2(C)C[C@]3(O)OC(=O)C(C)=C3C[C@@H]12 [Atractylenolide III, atractylenolide III] | 1130 ± 487 ng·h/mL | 1040 ± 497 ng·h/mL | 230 ± 108 ng/mL | 6.95 ± 2.65 h | 6.23 ± 1.55 h | 8.6 ± 3.13 h | 0.67 ± 0.26 h | 0.11 ± 0.05 | – | – | – | – | –
CC1(C)[C@@H](O[C@H]2O[C@H](C(=O)O)[C@@H](O)[C@H](O)[C@H]2O[C@@H]2O[C@H](C(=O)O)[C@@H](O)[C@H](O)[C@H]2O)CC[C@]2(C)[C@H]3C(=O)C=C4[C@@H]5C[C@@](C)(C(=O)O)CC[C@]5(C)CC[C@@]4(C)[C@]3(C)CC[C@@H]12 [Glycyrrhizic acid, glycyrrhizic acid] | 156 ± 59.6 ng·h/mL | 138 ± 57 ng·h/mL | 18.6 ± 6.61 ng/mL | 7.63 ± 5.35 h | 10.1 ± 0.58 h | 13.6 ± 5.72 h | 0.33 ± 0.11 h | 0.12 ± 0.05 | – | – | double peaks | – | –
CCC/C=C1\OC(=O)C2=C1CCC=C2 [Ligustilide, ligustilide] | 207 ± 58.5 ng·h/mL | 194 ± 57.7 ng·h/mL | 65 ± 42.2 ng/mL | 5.44 ± 3.09 h | 5.63 ± 2.32 h | 7.47 ± 4.23 h | 0.31 ± 0.13 h | 0.17 ± 0.10 | ~0.3 h | – | – | – | –
C[C@@]12C[C@@]3(O)O[C@@H](O1)[C@]1(COC(=O)c4ccccc4)[C@H]3C[C@@]12O[C@@H]1O[C@H](CO)[C@@H](O)[C@H](O)[C@H]1O [Paeoniflorin, paeoniflorin] | 718 ± 227 ng·h/mL | 697 ± 211 ng·h/mL | 587 ± 181 ng/mL | 4.82 ± 1.71 h | 4.17 ± 1.38 h | 4.91 ± 1.68 h | 0.42 ± 0.09 h | 0.16 ± 0.06 | – | – | – | – | –
C[C@H]1O[C@@H](O[C@H]2CC[C@@]3(C)[C@@H](CC[C@]4(C)[C@@H]3C=C[C@]35OC[C@@]6(CCC(C)(C)C[C@H]63)[C@@H](O)C[C@]54C)[C@]2(C)CO)[C@H](O)[C@@H](O[C@@H]2O[C@H](CO)[C@@H](O)[C@H](O)[C@H]2O)[C@H]1O [Saikosaponin a, saikosaponin a] | 18 ± 6.88 ng·h/mL | 16.3 ± 5.15 ng·h/mL | 6.05 ± 1.3 ng/mL | 6.46 ± 2.57 h | 6.61 ± 1.12 h | 8.88 ± 3.49 h | 0.42 ± 0.09 h | 0.12 ± 0.03 | – | – | double peaks | – | –
C[C@@H]1O[C@@H](O[C@H]2[C@H](O)[C@@H](O)[C@H](O[C@H]3CC[C@]4(C)[C@H]5C=C[C@]67OC[C@@]8(CCC(C)(C)C[C@H]86)[C@@H](O)C[C@@]7(C)[C@]5(C)CC[C@H]4C3(C)C)O[C@@H]2CO[C@@H]2O[C@H](CO)[C@@H](O)[C@H](O)[C@H]2O)[C@H](O)[C@H](O)[C@H]1O [Saikosaponin c, saikosaponin c] | 5.93 ± 2.19 ng·h/mL | 5.61 ± 1.92 ng·h/mL | 0.96 ± 0.33 ng/mL | 4.23 ± 2.83 h | 6.49 ± 1.17 h | 7.67 ± 2.7 h | 0.42 ± 0.09 h | 0.22 ± 0.11 | – | – | double peaks | – | –
CCC/C=C1\OC(=O)C2=C1CC[C@H](O)[C@H]2O [Senkyunolide I, senkyunolide I] | 1620 ± 967 ng·h/mL | 1580 ± 986 ng·h/mL | 403 ± 201 ng/mL | 4.75 ± 2.78 h | 5.31 ± 0.72 h | 6.37 ± 2.39 h | 0.36 ± 0.13 h | 0.18 ± 0.07 | – | – | – | – | –
